Values after ≈ are worked out from the molar mass of the structure shown.
Tested on: not listed separately
Assay: Kinetic solubility of compound at pH 7.4
Conditions: buffer
With `C[C@]12CC[C@@H]3c4ccc(O)cc4C[C@@H](CCCCCCCCC[S+]([O-])CCCC(F)(F)C(F)(F)F)[C@H]3[C@@H]1CC[C@@H]2O` (stereo partly drawn) [FULVESTRANT] the solubility kinetic was 3 µM (≈ 1.82 µg/mL). With `CC1=C(c2cccc(O)c2)[C@H](c2ccc(OCCN3CC(CF)C3)cc2)Oc2ccc(O)cc21` the solubility kinetic was 47 µM (≈ 21.7 µg/mL). With `C[C@@H]1Cc2c([nH]c3ccccc23)[C@@H](c2ccc(NC3CN(CCCF)C3)nc2)N1CC(F)(F)CO` the solubility kinetic was 114 µM (≈ 55.6 µg/mL). Work on `C[C@@H]1Cc2c([nH]c3ccccc23)[C@@H](c2c(F)cc(O[C@H]3CCN(CCCF)C3)cc2F)N1CC(F)(F)CO` yielded a solubility kinetic of 35 µM (≈ 18.8 µg/mL). `CC/C(=C(\c1ccc(O)cc1)c1ccc(OCCN(C)C)cc1)c1ccccc1` [AFIMOXIFENE] showed a solubility kinetic of 31 µM (≈ 12 µg/mL). `C[C@@H]1Cc2c([nH]c3ccccc23)[C@@H](c2c(F)cc(OCCN3CC(CF)C3)cc2F)N1CC(C)(C)F` showed a solubility kinetic of 10 µM (≈ 5.04 µg/mL).

Target: Cav1.2 (Homo sapiens, UniProt Q13936)
Sequence (Q13936 whole entry): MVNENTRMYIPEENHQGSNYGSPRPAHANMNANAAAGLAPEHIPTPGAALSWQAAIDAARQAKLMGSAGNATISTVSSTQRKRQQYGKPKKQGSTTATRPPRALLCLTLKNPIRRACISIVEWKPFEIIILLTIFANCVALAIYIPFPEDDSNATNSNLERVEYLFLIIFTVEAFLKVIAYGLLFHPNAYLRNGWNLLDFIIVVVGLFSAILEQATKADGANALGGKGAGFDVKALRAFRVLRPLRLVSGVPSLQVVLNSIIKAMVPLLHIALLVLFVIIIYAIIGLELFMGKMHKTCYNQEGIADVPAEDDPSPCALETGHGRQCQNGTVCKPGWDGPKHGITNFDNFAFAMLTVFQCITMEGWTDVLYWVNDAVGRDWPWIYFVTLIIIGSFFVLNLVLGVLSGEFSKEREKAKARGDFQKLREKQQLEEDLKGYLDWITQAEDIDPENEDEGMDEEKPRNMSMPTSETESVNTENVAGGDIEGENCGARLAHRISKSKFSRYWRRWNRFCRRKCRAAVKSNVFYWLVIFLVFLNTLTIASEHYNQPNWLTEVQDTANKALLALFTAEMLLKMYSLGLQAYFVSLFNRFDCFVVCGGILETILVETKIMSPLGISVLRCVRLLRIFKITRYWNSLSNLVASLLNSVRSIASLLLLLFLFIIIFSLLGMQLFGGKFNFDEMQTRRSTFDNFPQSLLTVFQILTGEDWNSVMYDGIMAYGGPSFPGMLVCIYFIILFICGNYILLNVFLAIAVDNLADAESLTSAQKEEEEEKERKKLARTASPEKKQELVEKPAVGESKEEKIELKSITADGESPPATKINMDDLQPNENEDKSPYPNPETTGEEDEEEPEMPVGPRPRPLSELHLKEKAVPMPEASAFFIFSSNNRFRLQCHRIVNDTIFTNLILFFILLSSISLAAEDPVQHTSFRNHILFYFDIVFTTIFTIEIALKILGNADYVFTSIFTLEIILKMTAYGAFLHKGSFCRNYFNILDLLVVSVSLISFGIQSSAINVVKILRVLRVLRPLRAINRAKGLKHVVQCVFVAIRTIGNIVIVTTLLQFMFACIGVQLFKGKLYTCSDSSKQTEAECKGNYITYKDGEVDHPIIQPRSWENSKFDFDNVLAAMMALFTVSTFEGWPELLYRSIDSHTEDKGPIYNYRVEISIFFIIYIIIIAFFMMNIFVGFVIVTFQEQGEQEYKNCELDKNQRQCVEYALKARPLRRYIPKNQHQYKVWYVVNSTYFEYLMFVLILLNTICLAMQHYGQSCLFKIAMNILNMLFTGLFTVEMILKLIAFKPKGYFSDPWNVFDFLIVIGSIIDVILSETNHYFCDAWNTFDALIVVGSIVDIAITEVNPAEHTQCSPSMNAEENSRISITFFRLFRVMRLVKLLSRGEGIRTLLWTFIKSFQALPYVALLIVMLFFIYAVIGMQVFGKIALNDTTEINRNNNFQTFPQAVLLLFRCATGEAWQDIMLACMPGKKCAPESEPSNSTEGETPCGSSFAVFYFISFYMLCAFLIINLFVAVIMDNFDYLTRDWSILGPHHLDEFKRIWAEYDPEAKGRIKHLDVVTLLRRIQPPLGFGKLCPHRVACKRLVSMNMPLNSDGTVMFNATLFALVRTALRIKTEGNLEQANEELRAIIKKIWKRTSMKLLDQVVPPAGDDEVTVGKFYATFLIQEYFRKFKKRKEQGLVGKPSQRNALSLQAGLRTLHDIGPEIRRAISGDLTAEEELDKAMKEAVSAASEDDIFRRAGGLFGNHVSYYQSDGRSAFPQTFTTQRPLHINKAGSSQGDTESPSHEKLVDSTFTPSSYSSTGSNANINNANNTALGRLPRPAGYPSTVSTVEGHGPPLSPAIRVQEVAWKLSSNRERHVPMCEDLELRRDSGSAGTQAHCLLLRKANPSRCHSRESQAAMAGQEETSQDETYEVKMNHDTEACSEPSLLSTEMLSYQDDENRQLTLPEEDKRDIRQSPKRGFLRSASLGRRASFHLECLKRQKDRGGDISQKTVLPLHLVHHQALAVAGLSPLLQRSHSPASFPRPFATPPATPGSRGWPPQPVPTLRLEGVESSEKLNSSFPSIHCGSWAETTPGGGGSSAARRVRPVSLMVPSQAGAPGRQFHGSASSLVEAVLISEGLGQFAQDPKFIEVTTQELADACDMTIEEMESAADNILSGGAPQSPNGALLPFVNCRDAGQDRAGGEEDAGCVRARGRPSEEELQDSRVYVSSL
Assay: Inhibition of human Cav1.2 expressed in CHO cells at 10 uM by QPatch HT assay
Conditions: CHO cells expressing human Cav1.2
For `C[C@@H]1Cc2c([nH]c3ccc(F)cc23)[C@@H](c2c(F)cc(NC3CN(CCCF)C3)cc2F)N1CC(F)(F)CO`, the inhibition at 10 µM was 10.7%.

Tested on: not listed separately
Assay: in vitro
Conditions: human, human liver microsomes
In the case of `C[C@@H]1Cc2c([nH]c3ccc(F)cc23)[C@@H](c2c(F)cc(NC3CN(CCCF)C3)cc2F)N1CC(F)(F)CO`, the CLint scaled at 1 h, 1 µM is reported as 10 mL/min/kg.

Same assay, conditions: human, microsomes
For `C[C@@H]1Cc2c([nH]c3ccccc23)[C@@H](c2ccc(NC3CN(CCCF)C3)nc2)N1CC(F)(F)CO`, the CLint scaled at 1 h, 1 µM was 6 mL/min/kg. With `C[C@@H]1Cc2c([nH]c3ccccc23)[C@@H](c2c(F)cc(O[C@H]3CCN(CCCF)C3)cc2F)N1CC(F)(F)CO` the CLint scaled at 1 h, 1 µM was 15 mL/min/kg. With `C[C@@H]1Cc2c([nH]c3ccccc23)[C@@H](c2c(F)cc(OCCN3CC(CF)C3)cc2F)N1CC(C)(C)F` the CLint scaled at 1 h, 1 µM was 10 mL/min/kg.

Target: Nav1.5 (Homo sapiens, UniProt Q14524)
Sequence (Q14524 whole entry): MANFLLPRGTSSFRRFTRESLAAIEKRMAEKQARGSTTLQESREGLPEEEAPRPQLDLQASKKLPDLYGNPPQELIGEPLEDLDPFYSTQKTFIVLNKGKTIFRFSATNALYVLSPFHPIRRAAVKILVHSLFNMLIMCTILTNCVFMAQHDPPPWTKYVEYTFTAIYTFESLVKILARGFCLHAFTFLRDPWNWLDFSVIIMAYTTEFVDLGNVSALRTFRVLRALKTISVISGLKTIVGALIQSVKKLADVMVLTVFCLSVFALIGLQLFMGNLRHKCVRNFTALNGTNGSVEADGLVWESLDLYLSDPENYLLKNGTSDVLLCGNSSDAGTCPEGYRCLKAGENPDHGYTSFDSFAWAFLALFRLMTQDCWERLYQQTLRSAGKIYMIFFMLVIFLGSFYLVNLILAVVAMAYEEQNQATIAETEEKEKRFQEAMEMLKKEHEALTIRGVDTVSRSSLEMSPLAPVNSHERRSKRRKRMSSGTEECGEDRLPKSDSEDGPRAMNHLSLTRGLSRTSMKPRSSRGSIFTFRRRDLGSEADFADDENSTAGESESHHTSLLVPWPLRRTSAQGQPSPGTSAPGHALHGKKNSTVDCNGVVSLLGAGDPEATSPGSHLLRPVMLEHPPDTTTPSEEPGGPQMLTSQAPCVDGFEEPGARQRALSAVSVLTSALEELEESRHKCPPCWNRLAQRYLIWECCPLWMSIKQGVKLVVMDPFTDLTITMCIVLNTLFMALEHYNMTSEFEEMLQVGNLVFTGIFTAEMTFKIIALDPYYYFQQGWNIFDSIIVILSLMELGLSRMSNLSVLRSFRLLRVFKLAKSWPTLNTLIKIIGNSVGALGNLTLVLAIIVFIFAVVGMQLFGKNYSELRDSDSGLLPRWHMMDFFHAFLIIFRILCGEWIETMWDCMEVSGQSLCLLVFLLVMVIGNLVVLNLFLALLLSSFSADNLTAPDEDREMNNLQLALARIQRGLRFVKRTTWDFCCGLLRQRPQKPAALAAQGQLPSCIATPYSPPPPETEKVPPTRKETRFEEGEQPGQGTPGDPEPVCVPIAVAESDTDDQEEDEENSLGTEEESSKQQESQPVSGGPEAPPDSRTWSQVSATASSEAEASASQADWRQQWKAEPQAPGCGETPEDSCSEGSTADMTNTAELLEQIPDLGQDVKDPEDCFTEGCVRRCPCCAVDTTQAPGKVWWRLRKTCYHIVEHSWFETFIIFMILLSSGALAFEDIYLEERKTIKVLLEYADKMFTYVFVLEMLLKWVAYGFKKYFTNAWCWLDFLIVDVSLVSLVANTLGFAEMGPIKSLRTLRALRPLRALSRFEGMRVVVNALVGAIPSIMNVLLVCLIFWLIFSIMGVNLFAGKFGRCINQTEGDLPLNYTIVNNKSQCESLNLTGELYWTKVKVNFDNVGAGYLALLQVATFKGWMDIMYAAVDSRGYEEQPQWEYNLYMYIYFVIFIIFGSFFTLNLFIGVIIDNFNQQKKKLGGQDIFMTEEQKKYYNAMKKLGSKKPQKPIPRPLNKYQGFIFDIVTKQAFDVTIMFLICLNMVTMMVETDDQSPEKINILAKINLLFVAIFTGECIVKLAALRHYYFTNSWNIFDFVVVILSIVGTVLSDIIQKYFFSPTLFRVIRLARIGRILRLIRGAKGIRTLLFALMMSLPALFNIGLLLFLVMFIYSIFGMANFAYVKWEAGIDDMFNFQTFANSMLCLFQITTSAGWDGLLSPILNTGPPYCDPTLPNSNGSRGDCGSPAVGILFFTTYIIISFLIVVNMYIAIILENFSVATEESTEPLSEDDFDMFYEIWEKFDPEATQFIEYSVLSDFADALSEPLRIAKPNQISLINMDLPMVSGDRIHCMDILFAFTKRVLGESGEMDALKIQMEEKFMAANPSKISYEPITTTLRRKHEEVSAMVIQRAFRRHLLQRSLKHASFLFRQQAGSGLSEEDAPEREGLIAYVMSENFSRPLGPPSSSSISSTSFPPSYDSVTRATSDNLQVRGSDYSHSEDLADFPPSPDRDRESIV
Assay: Inhibition of human Nav1.5 expressed in CHO cells at 10 uM by QPatch HT assay
Conditions: CHO cells expressing human Nav1.5
`C[C@@H]1Cc2c([nH]c3ccc(F)cc23)[C@@H](c2c(F)cc(NC3CN(CCCF)C3)cc2F)N1CC(F)(F)CO` gave an inhibition at 10 µM of 14%.

Tested on: not listed separately
Assay: in vitro
Conditions: rat, hepatocytes
Work on `C[C@]12CC[C@@H]3c4ccc(O)cc4C[C@@H](CCCCCCCCC[S+]([O-])CCCC(F)(F)C(F)(F)F)[C@H]3[C@@H]1CC[C@@H]2O` (stereo partly drawn) [FULVESTRANT] yielded a CLint scaled at 1 h of 29 mL/min/kg. For `CC1=C(c2cccc(O)c2)[C@H](c2ccc(OCCN3CC(CF)C3)cc2)Oc2ccc(O)cc21`, the CLint scaled at 1 h was 46 mL/min/kg. In the case of `CC/C(=C(\c1ccccc1)c1ccc(OCCN(C)C)cc1)c1ccccc1` [TAMOXIFEN], the CLint scaled at 1 h is reported as 33 mL/min/kg. Compound `CC/C(=C(\c1ccc(O)cc1)c1ccc(OCCN(C)C)cc1)c1ccccc1` [AFIMOXIFENE] has a CLint scaled at 1 h of 32 mL/min/kg. In the case of `C[C@@H]1Cc2c([nH]c3ccccc23)[C@@H](c2c(F)cc(OCCN3CC(CF)C3)cc2F)N1CC(C)(C)F`, the CLint scaled at 1 h is reported as 29 mL/min/kg.

Same assay, conditions: rat, rat hepatocytes
For `C[C@@H]1Cc2c([nH]c3ccc(F)cc23)[C@@H](c2c(F)cc(NC3CN(CCCF)C3)cc2F)N1CC(F)(F)CO`, the CLint scaled at 1 h was 15 mL/min/kg.

Target: T1, Estrogen receptor (Homo sapiens) (UniProt P03372)
T1 sequence (whole entry): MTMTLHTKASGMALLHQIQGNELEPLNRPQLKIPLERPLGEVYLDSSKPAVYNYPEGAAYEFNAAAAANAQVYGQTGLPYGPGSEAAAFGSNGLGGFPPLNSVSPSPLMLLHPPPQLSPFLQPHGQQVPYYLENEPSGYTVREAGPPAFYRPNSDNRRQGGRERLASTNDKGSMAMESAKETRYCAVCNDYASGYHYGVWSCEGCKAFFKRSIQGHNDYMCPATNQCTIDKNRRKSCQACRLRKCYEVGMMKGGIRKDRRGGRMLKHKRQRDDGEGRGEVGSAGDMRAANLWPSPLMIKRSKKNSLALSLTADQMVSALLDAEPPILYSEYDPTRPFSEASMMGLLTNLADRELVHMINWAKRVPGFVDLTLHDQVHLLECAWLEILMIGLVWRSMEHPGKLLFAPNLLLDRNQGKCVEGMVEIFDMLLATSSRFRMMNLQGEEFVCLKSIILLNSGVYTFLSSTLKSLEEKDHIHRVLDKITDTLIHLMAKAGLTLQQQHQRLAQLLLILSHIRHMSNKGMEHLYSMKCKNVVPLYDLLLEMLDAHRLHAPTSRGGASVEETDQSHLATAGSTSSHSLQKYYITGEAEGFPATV
Assay: not given
Conditions: MCF7, dose 1.0 nM, time 0.5-24 hrs
For `C[C@]12CC[C@@H]3c4ccc(O)cc4C[C@@H](CCCCCCCCC[S+]([O-])CCCC(F)(F)C(F)(F)F)[C@H]3[C@@H]1CC[C@@H]2O` (stereo partly drawn) [FULVESTRANT], the T1/2 was 2.2 h. Work on `CC1=C(c2cccc(O)c2)[C@H](c2ccc(OCCN3CC(CF)C3)cc2)Oc2ccc(O)cc21` yielded a T1/2 of 6 h.

Tested on: not listed separately
Assay: in vitro
Conditions: rat, microsomes
`C[C@@H]1Cc2c([nH]c3ccccc23)[C@@H](c2ccc(NC3CN(CCCF)C3)nc2)N1CC(F)(F)CO` gave a CLint scaled at 1 h, 1 µM of 23 mL/min/kg. In the case of `C[C@@H]1Cc2c([nH]c3ccccc23)[C@@H](c2c(F)cc(O[C@H]3CCN(CCCF)C3)cc2F)N1CC(F)(F)CO`, the CLint scaled at 1 h, 1 µM is reported as 35 mL/min/kg. In the case of `C[C@@H]1Cc2c([nH]c3ccccc23)[C@@H](c2c(F)cc(OCCN3CC(CF)C3)cc2F)N1CC(C)(C)F`, the CLint scaled at 1 h, 1 µM is reported as 29 mL/min/kg.

Same assay, conditions: rat, rat liver microsomes
For `C[C@@H]1Cc2c([nH]c3ccc(F)cc23)[C@@H](c2c(F)cc(NC3CN(CCCF)C3)cc2F)N1CC(F)(F)CO`, the CLint scaled at 1 h, 1 µM was 14 mL/min/kg.

Tested on: not listed separately
Assay: Apparent permeability in MDCK cells across apical to basolateral side at 10 uM incubated for 3 hrs by LC-MS/MS analysis
Conditions: dog
In the case of `CC1=C(c2cccc(O)c2)[C@H](c2ccc(OCCN3CC(CF)C3)cc2)Oc2ccc(O)cc21`, the Papp A→B at 3 h, 10 µM is reported as 4.6 ×10⁻⁶ cm/s.

Tested on: not given
Assay: not given
Conditions: rat, in vivo, iv, 1 mg/kg
In the case of `C[C@@H]1Cc2c([nH]c3ccc(F)cc23)[C@@H](c2c(F)cc(NC3CN(CCCF)C3)cc2F)N1CC(F)(F)CO`, the CL free is reported as 1475 mL/min/kg.

Target: T2, Estrogen receptor (Homo sapiens, UniProt P03372)
T2 sequence (P03372 whole entry): T1 sequence (whole entry)
Assay: not given
Conditions: mcf7
For `C[C@@H]1Cc2c([nH]c3ccccc23)[C@@H](c2ccc(NC3CN(CCCF)C3)nc2)N1CC(F)(F)CO`, the DC50 was greater than 1000 nM. `C[C@@H]1Cc2c([nH]c3ccccc23)[C@@H](c2c(F)cc(O[C@H]3CCN(CCCF)C3)cc2F)N1CC(F)(F)CO` gave a DC50 of 0.12 nM.

Tested on: not listed separately
Assay: in vivo
Conditions: Sprague-Dawley, rat, po, 1 mg/kg
With `C[C@@H]1Cc2c([nH]c3ccccc23)[C@@H](c2c(F)cc(OCCN3CC(CF)C3)cc2F)N1CC(C)(C)F` the bioavailability was 31%.

Tested on: MCF7
Assay: cells
Conditions: Homo sapiens, MCF7, 72 h
Description: Antiproliferative activity against human MCF-7 cells incubated for 72 hrs by Cell-titer Glo assay
With `C[C@@H]1Cc2c([nH]c3ccccc23)[C@@H](c2c(F)cc(OCCNCCCF)cc2F)N1CC(F)(F)CO` the EC50 was 0.9 nM. `C[C@]12CC[C@@H]3c4ccc(O)cc4C[C@@H](CCCCCCCCC[S+]([O-])CCCC(F)(F)C(F)(F)F)[C@H]3[C@@H]1CC[C@@H]2O` (stereo partly drawn) [FULVESTRANT] showed an EC50 of 2.4 nM. Work on `C[C@@H]1Cc2c([nH]c3ccccc23)[C@@H](c2ccc(NC3CN(CCCF)C3)nc2)N1CC(F)(F)CO` yielded an EC50 greater than 200 nM. With `C[C@@H]1Cc2c([nH]c3ccc(F)cc23)[C@@H](c2c(F)cc(NC3CN(CCCF)C3)cc2F)N1CC(F)(F)CO` the EC50 was 0.5 nM. `CC/C(=C(\c1ccccc1)c1ccc(OCCN(C)C)cc1)c1ccccc1` [TAMOXIFEN] gave an EC50 greater than 200 nM. In the case of `C[C@@H]1Cc2c([nH]c3ccccc23)[C@@H](c2c(F)cc(O[C@H]3CCN(CCCF)C3)cc2F)N1CC(F)(F)CO`, the EC50 is reported as 0.3 nM. Work on `CC/C(=C(\c1ccc(O)cc1)c1ccc(OCCN(C)C)cc1)c1ccccc1` [AFIMOXIFENE] yielded an EC50 of 3.5 nM. With `C[C@@H]1Cc2c([nH]c3ccccc23)[C@@H](c2c(F)cc(OCCN3CC(CF)C3)cc2F)N1CC(C)(C)F` the EC50 was 1 nM.

Tested on: not listed separately
Assay: in vivo
Conditions: Sprague-Dawley, rat, po, 5 mg/kg
Work on `CC1=C(c2cccc(O)c2)[C@H](c2ccc(OCCN3CC(CF)C3)cc2)Oc2ccc(O)cc21` yielded a bioavailability of 17%. In the case of `CC/C(=C(\c1ccccc1)c1ccc(OCCN(C)C)cc1)c1ccccc1` [TAMOXIFEN], the bioavailability is reported as 69%.

Tested on: not listed separately
Assay: Distribution coefficient, logD of the compound at pH 7.4
Conditions: octanol/water
`C[C@]12CC[C@@H]3c4ccc(O)cc4C[C@@H](CCCCCCCCC[S+]([O-])CCCC(F)(F)C(F)(F)F)[C@H]3[C@@H]1CC[C@@H]2O` (stereo partly drawn) [FULVESTRANT] showed a logD greater than 5. Compound `CC/C(=C(\c1ccc(O)cc1)c1ccc(OCCN(C)C)cc1)c1ccccc1` [AFIMOXIFENE] has a logD of 4. For `C[C@@H]1Cc2c([nH]c3ccccc23)[C@@H](c2c(F)cc(OCCN3CC(CF)C3)cc2F)N1CC(C)(C)F`, the logD was 4.

Target: T1, Estrogen receptor (Homo sapiens)
Assay: not given
Conditions: MCF7, dose 0.0002-100 nM, time 4.0 hrs
In the case of `C[C@]12CC[C@@H]3c4ccc(O)cc4C[C@@H](CCCCCCCCC[S+]([O-])CCCC(F)(F)C(F)(F)F)[C@H]3[C@@H]1CC[C@@H]2O` (stereo partly drawn) [FULVESTRANT], the Emax is reported as 103%. `CC1=C(c2cccc(O)c2)[C@H](c2ccc(OCCN3CC(CF)C3)cc2)Oc2ccc(O)cc21` showed an Emax of 97%.

Target: T2, Estrogen receptor
Assay: not given
Conditions: not given
With `C[C@@H]1Cc2c([nH]c3ccccc23)[C@@H](c2ccc(NC3CN(CCCF)C3)nc2)N1CC(F)(F)CO` the IC50 was greater than 1000 nM.

Tested on: not listed separately
Assay: Clearance in Sprague-Dawley rat at 1 mg/kg, iv or po measured after 0.033 to 24 hrs by LC/MS/MS analysis
Conditions: in vivo
`CC/C(=C(\c1ccccc1)c1ccc(OCCN(C)C)cc1)c1ccccc1` [TAMOXIFEN] showed a clearance of 95 mL/min/kg. With `C[C@@H]1Cc2c([nH]c3ccccc23)[C@@H](c2c(F)cc(OCCN3CC(CF)C3)cc2F)N1CC(C)(C)F` the clearance was 34 mL/min/kg.

Tested on: not listed separately
Assay: in vitro
Conditions: human, hepatocytes
Work on `C[C@]12CC[C@@H]3c4ccc(O)cc4C[C@@H](CCCCCCCCC[S+]([O-])CCCC(F)(F)C(F)(F)F)[C@H]3[C@@H]1CC[C@@H]2O` (stereo partly drawn) [FULVESTRANT] yielded a CLint scaled at 1 h of 15 mL/min/kg. `CC/C(=C(\c1ccccc1)c1ccc(OCCN(C)C)cc1)c1ccccc1` [TAMOXIFEN] gave a CLint scaled at 1 h of 12 mL/min/kg. Work on `CC/C(=C(\c1ccc(O)cc1)c1ccc(OCCN(C)C)cc1)c1ccccc1` [AFIMOXIFENE] yielded a CLint scaled at 1 h of 14 mL/min/kg. Work on `C[C@@H]1Cc2c([nH]c3ccccc23)[C@@H](c2c(F)cc(OCCN3CC(CF)C3)cc2F)N1CC(C)(C)F` yielded a CLint scaled at 1 h of 6 mL/min/kg.

Same assay, conditions: human, human hepatocytes
`C[C@@H]1Cc2c([nH]c3ccc(F)cc23)[C@@H](c2c(F)cc(NC3CN(CCCF)C3)cc2F)N1CC(F)(F)CO` gave a CLint scaled at 1 h of 10 mL/min/kg.

Tested on: not listed separately
Assay: in vivo
Conditions: Sprague-Dawley, rat, iv, 1 mg/kg
In the case of `C[C@@H]1Cc2c([nH]c3ccc(F)cc23)[C@@H](c2c(F)cc(NC3CN(CCCF)C3)cc2F)N1CC(F)(F)CO`, the clearance is reported as 18 mL/min/kg.

Source: ChEMBL document CHEMBL4825708 (J Med Chem, 2021)
